# Laboratory results published in patent publication US20250064007A1, “Self-Fertilization as Methods for Stabilizing Ploidy after Colchicine Treatment Model” (Rev Genomics, Inc., priority 2023, published 2025).
# System: Cannabis plant
# Test: Leaf ploidy by flow cytometry after colchicine treatment of haploid Cannabis plants
# Format: in vivo
# Conditions: for cells counted diploid / cells counted haploid / cells counted tetraploid: mixaploid (n+2n) state
# From the text: In some exemplary embodiments, a colchicine concentration (in water) of 0.25% may be used in addition to 0.5%, 1% and 5%. An issue arises with Cannabis in that not all the cells or tissues of a colchicine treated plant will double their ploidy.
# On the multi-cellular level, doubling the ploidy of plants requires colchicine treatment applied to the shoot apical meristem (SAM). The SAM is composed of three distinct cell layers: L1 (outermost layer), L2 (middle layer), and L3 (innermost layer). Within the SAM, stem cell division takes place along the peripheral zone where new leaves emerge (Heidstra, 2014). The L1 gives rise to the epidermis or the protective covering of the leaf and stem, L2 to the sub epidermal photosynthetic mesophyll tissue, and L3 to the vascular tissue including the xylem and phloem. L1 and L2 divide anticlinally or […] to each other and thus remain distinct layers (Meyerowitz, 1997). On occasion, a cell in the SAM can divide periclinally whereby the daughter cell invades and acquires the identity one layer out and brings its ploidy with it. This organizational dynamic creates a stable yet mutable developmental path. In fact, the discovery of the stability of different layers within a meristem was discovered by creating a chimera using colchicine on Datura. The researchers were able to follow the developmental lineage of the differently sized cells due to the different ploidy levels within the SAM (Satina, 1940).
# [1] = cultivar Cryptic Lineage Legacy, FIG. 4C
# [2] = cultivar Herbaceous Sting, FIG. 2C
# [3] = cultivar Operation Green Harvest Haze, FIG. 3C
# [4] = cultivar Standing Liberty, FIG. 1C
structure (smiles),measurement,setting,value
COc1cc2c(c(OC)c1OC)-c1ccc(OC)c(=O)cc1[C@@H](NC(C)=O)CC2 [Colchicine],ploidy doubling of treated haploid plants,colchicine treated haploid Cannabis plants,"very rarely, if ever, achieve a fully diploid state"
same,cells counted diploid,[1],approximately 20.65%
same,cells counted haploid,[1],approximately 17.65%
same,cells counted tetraploid,[1],approximately 2.63%
same,cells counted diploid,[2],approximately 45.82%
same,cells counted haploid,[2],approximately 12.15%
same,cells counted tetraploid,[2],approximately 3.93%
same,cells counted diploid,[3],approximately 22.8%
same,cells counted haploid,[3],approximately 32.4%
same,cells counted tetraploid,[3],approximately 3.1%
same,cells counted diploid,[4],approximately 49%
same,cells counted haploid,[4],approximately 12.48%
same,cells counted tetraploid,[4],approximately 4.39%
